In PubChem BioAssay (NCI):
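All cell lines were grown in 96-well plates and treated with compound for 48 hours. At the TGI there is no net growth.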

System: CAKI-1 renal
Experiment: NCI tumour cell line growth inhibition, 48 h

Row | Structure (SMILES) | TGI
1 | O=CN/C=C/c1cc(O)ccc1O | 25.8 µM
2 | COC(=O)CC1CCN(C#N)CC1CC[N+](=O)[O-] (stereo not given) | > 100 µM

System: RXF 393 renal
Experiment: NCI tumour cell line growth inhibition, 48 h

Row | Structure (SMILES) | TGI
3 | COc1ccccc1C12OC(=O)C1(C)Oc1ccccc1C2=O (stereo not given) | > 100 µM
4 | Brc1ccc(N=c2nc3ccccn3n3nc(-c4ccccc4)cc23)cc1 | 51.1 µM
5 | O=CN/C=C/c1cc(O)ccc1O | 26.3 µM
6 | COC(=O)CC1CCN(C#N)CC1CC[N+](=O)[O-] (stereo not given) | > 100 µM

System: M14 melanoma
Experiment: NCI tumour cell line growth inhibition, 48 h

Row | Structure (SMILES) | TGI
7 | C/C(CC(=O)CCC(=O)Nc1cccc(C(F)(F)F)c1)=N\NC(=O)NN | > 100 µM
8 | COc1ccccc1C12OC(=O)C1(C)Oc1ccccc1C2=O (stereo not given) | > 100 µM
9 | Brc1ccc(N=c2nc3ccccn3n3nc(-c4ccccc4)cc23)cc1 | 33 µM
10 | O=CN/C=C/c1cc(O)ccc1O | 32.8 µM
11 | COC(=O)CC1CCN(C#N)CC1CC[N+](=O)[O-] (stereo not given) | > 100 µM

System: SK-MEL-28 melanoma
Experiment: NCI tumour cell line growth inhibition, 48 h

Row | Structure (SMILES) | TGI
12 | C/C(CC(=O)CCC(=O)Nc1cccc(C(F)(F)F)c1)=N\NC(=O)NN | > 100 µM
13 | COc1ccccc1C12OC(=O)C1(C)Oc1ccccc1C2=O (stereo not given) | > 100 µM
14 | Brc1ccc(N=c2nc3ccccn3n3nc(-c4ccccc4)cc23)cc1 | > 100 µM
15 | O=CN/C=C/c1cc(O)ccc1O | > 78.5 µM
16 | COC(=O)CC1CCN(C#N)CC1CC[N+](=O)[O-] (stereo not given) | > 100 µM

System: NCI-H522 lung
Experiment: NCI tumour cell line growth inhibition, 48 h

Row | Structure (SMILES) | TGI
17 | C/C(CC(=O)CCC(=O)Nc1cccc(C(F)(F)F)c1)=N\NC(=O)NN | > 100 µM
18 | Brc1ccc(N=c2nc3ccccn3n3nc(-c4ccccc4)cc23)cc1 | 88.2 µM
19 | O=CN/C=C/c1cc(O)ccc1O | 11.2 µM
20 | COC(=O)CC1CCN(C#N)CC1CC[N+](=O)[O-] (stereo not given) | > 100 µM

System: P388 leukemia
Experiment: NCI tumour cell line growth inhibition, 48 h

Row | Structure (SMILES) | TGI
21 | O=CN/C=C/c1cc(O)ccc1O | 5.2 µM

System: UACC-257 melanoma
Experiment: NCI tumour cell line growth inhibition, 48 h

Row | Structure (SMILES) | TGI
22 | C/C(CC(=O)CCC(=O)Nc1cccc(C(F)(F)F)c1)=N\NC(=O)NN | > 100 µM
23 | COc1ccccc1C12OC(=O)C1(C)Oc1ccccc1C2=O (stereo not given) | > 100 µM
24 | Brc1ccc(N=c2nc3ccccn3n3nc(-c4ccccc4)cc23)cc1 | > 100 µM
25 | O=CN/C=C/c1cc(O)ccc1O | 27.8 µM
26 | COC(=O)CC1CCN(C#N)CC1CC[N+](=O)[O-] (stereo not given) | > 100 µM

System: A549 NSCLC
Experiment: NCI tumour cell line growth inhibition, 48 h

Row | Structure (SMILES) | TGI
27 | C/C(CC(=O)CCC(=O)Nc1cccc(C(F)(F)F)c1)=N\NC(=O)NN | > 100 µM
28 | COc1ccccc1C12OC(=O)C1(C)Oc1ccccc1C2=O (stereo not given) | > 100 µM
29 | Brc1ccc(N=c2nc3ccccn3n3nc(-c4ccccc4)cc23)cc1 | > 100 µM
30 | O=CN/C=C/c1cc(O)ccc1O | > 85.4 µM
31 | COC(=O)CC1CCN(C#N)CC1CC[N+](=O)[O-] (stereo not given) | > 100 µM

System: ACHN renal
Experiment: NCI tumour cell line growth inhibition, 48 h

Row | Structure (SMILES) | TGI
32 | C/C(CC(=O)CCC(=O)Nc1cccc(C(F)(F)F)c1)=N\NC(=O)NN | > 100 µM
33 | COc1ccccc1C12OC(=O)C1(C)Oc1ccccc1C2=O (stereo not given) | > 100 µM
34 | Brc1ccc(N=c2nc3ccccn3n3nc(-c4ccccc4)cc23)cc1 | > 100 µM
35 | O=CN/C=C/c1cc(O)ccc1O | 28.9 µM
36 | COC(=O)CC1CCN(C#N)CC1CC[N+](=O)[O-] (stereo not given) | > 100 µM

System: DMS 273 small cell lung
Experiment: NCI tumour cell line growth inhibition, 48 h

Row | Structure (SMILES) | TGI
37 | C/C(CC(=O)CCC(=O)Nc1cccc(C(F)(F)F)c1)=N\NC(=O)NN | > 100 µM
38 | COc1ccccc1C12OC(=O)C1(C)Oc1ccccc1C2=O (stereo not given) | 86.4 µM
39 | O=CN/C=C/c1cc(O)ccc1O | > 100 µM
40 | COC(=O)CC1CCN(C#N)CC1CC[N+](=O)[O-] (stereo not given) | > 100 µM

System: EKVX NSCLC
Experiment: NCI tumour cell line growth inhibition, 48 h

Row | Structure (SMILES) | TGI
41 | C/C(CC(=O)CCC(=O)Nc1cccc(C(F)(F)F)c1)=N\NC(=O)NN | > 100 µM
42 | COc1ccccc1C12OC(=O)C1(C)Oc1ccccc1C2=O (stereo not given) | > 100 µM
43 | Brc1ccc(N=c2nc3ccccn3n3nc(-c4ccccc4)cc23)cc1 | > 100 µM
44 | O=CN/C=C/c1cc(O)ccc1O | 35.6 µM

System: NCI/ADR-RES ovarian
Experiment: NCI tumour cell line growth inhibition, 48 h

Row | Structure (SMILES) | TGI
45 | O=CN/C=C/c1cc(O)ccc1O | 42.1 µM

System: HL-60(TB) leukemia
Experiment: NCI tumour cell line growth inhibition, 48 h

Row | Structure (SMILES) | TGI
46 | C/C(CC(=O)CCC(=O)Nc1cccc(C(F)(F)F)c1)=N\NC(=O)NN | > 100 µM
47 | COc1ccccc1C12OC(=O)C1(C)Oc1ccccc1C2=O (stereo not given) | > 100 µM
48 | Brc1ccc(N=c2nc3ccccn3n3nc(-c4ccccc4)cc23)cc1 | > 100 µM
49 | O=CN/C=C/c1cc(O)ccc1O | 13.2 µM
50 | COC(=O)CC1CCN(C#N)CC1CC[N+](=O)[O-] (stereo not given) | > 100 µM

System: A498 renal
Experiment: NCI tumour cell line growth inhibition, 48 h

Row | Structure (SMILES) | TGI
51 | C/C(CC(=O)CCC(=O)Nc1cccc(C(F)(F)F)c1)=N\NC(=O)NN | > 100 µM
52 | COc1ccccc1C12OC(=O)C1(C)Oc1ccccc1C2=O (stereo not given) | > 100 µM
53 | O=CN/C=C/c1cc(O)ccc1O | > 100 µM
54 | COC(=O)CC1CCN(C#N)CC1CC[N+](=O)[O-] (stereo not given) | > 100 µM

System: NCI-H226 lung
Experiment: NCI tumour cell line growth inhibition, 48 h

Row | Structure (SMILES) | TGI
55 | C/C(CC(=O)CCC(=O)Nc1cccc(C(F)(F)F)c1)=N\NC(=O)NN | > 100 µM
56 | COc1ccccc1C12OC(=O)C1(C)Oc1ccccc1C2=O (stereo not given) | > 100 µM
57 | Brc1ccc(N=c2nc3ccccn3n3nc(-c4ccccc4)cc23)cc1 | > 100 µM
58 | O=CN/C=C/c1cc(O)ccc1O | > 88.1 µM
59 | COC(=O)CC1CCN(C#N)CC1CC[N+](=O)[O-] (stereo not given) | > 100 µM

System: SK-MEL-2 melanoma
Experiment: NCI tumour cell line growth inhibition, 48 h

Row | Structure (SMILES) | TGI
60 | C/C(CC(=O)CCC(=O)Nc1cccc(C(F)(F)F)c1)=N\NC(=O)NN | > 100 µM
61 | COc1ccccc1C12OC(=O)C1(C)Oc1ccccc1C2=O (stereo not given) | > 100 µM
62 | Brc1ccc(N=c2nc3ccccn3n3nc(-c4ccccc4)cc23)cc1 | > 100 µM
63 | O=CN/C=C/c1cc(O)ccc1O | > 71.9 µM
64 | COC(=O)CC1CCN(C#N)CC1CC[N+](=O)[O-] (stereo not given) | > 100 µM

System: LOX IMVI melanoma
Experiment: NCI tumour cell line growth inhibition, 48 h

Row | Structure (SMILES) | TGI
65 | COc1ccccc1C12OC(=O)C1(C)Oc1ccccc1C2=O (stereo not given) | > 100 µM
66 | O=CN/C=C/c1cc(O)ccc1O | 28.1 µM

System: SNB-78 CNS
Experiment: NCI tumour cell line growth inhibition, 48 h

Row | Structure (SMILES) | TGI
67 | C/C(CC(=O)CCC(=O)Nc1cccc(C(F)(F)F)c1)=N\NC(=O)NN | > 100 µM
68 | COc1ccccc1C12OC(=O)C1(C)Oc1ccccc1C2=O (stereo not given) | > 100 µM
69 | O=CN/C=C/c1cc(O)ccc1O | 44.3 µM
70 | COC(=O)CC1CCN(C#N)CC1CC[N+](=O)[O-] (stereo not given) | > 100 µM
